Literature values, collected in patent US20120065069A1, “AGENT FOR REDUCING NICOTINE AND HARMFUL COMPONENTS IN TOBACCO LEAVES FOR USE IN FIELD CULTIVATION OF TOBACCO” (TOBACCO RESEARCH INSTITUTE OF HUBEI PROVINCE, priority 2009, published 2012).

Legend:
[1] = system: flue-cured tobacco; settings: for effect in reducing the nicotine content: single ingredient, flue-cured tobacco, Liu et al. 2005 (IAA), Gao et al. 2005 (α-NAA, variety K326); for effect in nicotine reduction: Feng Ding thesis 2006, flue-cured tobacco
[2] = system: bean seedling; settings: 2 mmol/L salicylic acid
[3] = system: corn; settings: 0.5 mmol/L salicylic acid

SMILES | effect in reducing the nicotine content [1] | effect in nicotine reduction [1] | also measured
O=C(O)Cc1c[nH]c2ccccc12 [indolylacetic acid] | certain effects | – | –
O=C(O)Cc1cccc2ccccc12 [naphthylacetic acid] | certain effects | – | –
O=C(O)COc1ccc(Cl)cc1Cl [2,4-D, 2,4-dichlorophenoxyacetic acid] | – | significant effects | –
O=C(O)c1ccccc1O [salicylic acid] | – | – | effect on damage of drought stress to bean seedling [2]: alleviate the damage of drought stress; effect on tolerance of corn to low temperature [3]: enhance the tolerance
C[N+](C)(C)CCO.[Cl-] [CC, choline chloride] | – | significant effects | –
